From patent US10994015B2, “EGFR proteolysis targeting chimeric molecules and associated methods of use” (Arvinas Operations, Inc., priority 2016, dated 2021)
pIC50: −log10 of the molar value.

Key:
[1] = target: EGFR-wt (MDA-MB-231 or MCF7 or A549 or OVCAR8) (Homo sapiens (Human), UniProt P00533); test: EGFR protein degradation assay (Western blot); type: cell-based; settings: 72 hours, 300 nM to 10 nM
In short: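 EGFR degradation was assessed by Western blot. Cells expressing the appropriate EGFR were seeded in 6-well plates (300,000 cells per well) and adhered overnight. Media was removed, cells were washed with cold phosphate-buffered saline, scraped into 400 μl Cell Signaling lysis buffer plus protease inhibitor cocktail, and spun once at 10 000 rpm for 10 minutes. After BCA quantification, loading buffer and reducing agent were added. Gels loaded with 10 μg protein ran at 165V for 2 hours, and bands were visualized by chemiluminescence.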

[2] = target: EGFR Exon 20 ASV (HeLa*) (Homo sapiens (Human), UniProt P00533, DUP767-769); test: EGFR protein degradation assay (Western blot); type: cell-based; settings: 72 hours, 300 nM to 10 nM
EGFR Exon 20 ASV (HeLa*), sequence (P00533 other isoform, or with tags, fused parts or gaps dup 767-769): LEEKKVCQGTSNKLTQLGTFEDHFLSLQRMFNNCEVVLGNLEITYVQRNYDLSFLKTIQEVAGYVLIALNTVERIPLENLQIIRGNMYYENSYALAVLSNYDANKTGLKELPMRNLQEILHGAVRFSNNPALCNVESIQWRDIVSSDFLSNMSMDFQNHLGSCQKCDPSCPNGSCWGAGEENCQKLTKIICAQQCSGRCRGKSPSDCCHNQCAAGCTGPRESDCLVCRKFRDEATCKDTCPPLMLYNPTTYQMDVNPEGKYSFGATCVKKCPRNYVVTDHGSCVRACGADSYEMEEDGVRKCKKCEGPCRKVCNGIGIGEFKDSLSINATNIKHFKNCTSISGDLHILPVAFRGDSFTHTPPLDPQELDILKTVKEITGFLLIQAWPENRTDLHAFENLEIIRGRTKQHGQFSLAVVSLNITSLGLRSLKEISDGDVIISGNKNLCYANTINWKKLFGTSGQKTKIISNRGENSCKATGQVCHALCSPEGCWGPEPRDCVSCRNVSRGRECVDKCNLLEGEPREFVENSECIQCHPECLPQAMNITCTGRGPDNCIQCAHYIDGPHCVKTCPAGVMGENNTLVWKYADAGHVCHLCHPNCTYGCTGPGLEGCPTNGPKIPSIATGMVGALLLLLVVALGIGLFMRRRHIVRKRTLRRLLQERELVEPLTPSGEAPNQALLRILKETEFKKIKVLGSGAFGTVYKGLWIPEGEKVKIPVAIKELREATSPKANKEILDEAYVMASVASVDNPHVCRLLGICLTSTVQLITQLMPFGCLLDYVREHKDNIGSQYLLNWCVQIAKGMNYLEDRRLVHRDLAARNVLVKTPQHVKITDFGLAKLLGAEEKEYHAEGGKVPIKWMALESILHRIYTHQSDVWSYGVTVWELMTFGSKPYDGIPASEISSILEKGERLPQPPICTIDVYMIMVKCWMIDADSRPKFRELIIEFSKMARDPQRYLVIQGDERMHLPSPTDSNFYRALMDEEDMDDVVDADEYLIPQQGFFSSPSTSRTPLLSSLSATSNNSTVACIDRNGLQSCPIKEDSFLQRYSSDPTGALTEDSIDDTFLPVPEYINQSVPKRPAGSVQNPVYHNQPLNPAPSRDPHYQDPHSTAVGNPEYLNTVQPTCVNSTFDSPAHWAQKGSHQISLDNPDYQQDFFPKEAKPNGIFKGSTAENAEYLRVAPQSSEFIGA

[3] = target: EGFR Exon20NPG (Homo sapiens (Human), UniProt P00533, INS770NPG); test: TR-FRET assay for ERBB kinases; type: biochemical; settings: geometric mean if measured more than once
EGFR Exon20NPG, sequence (P00533 other isoform, or with tags, fused parts or gaps del 1-694/ins NPG behind 770 limits assumed): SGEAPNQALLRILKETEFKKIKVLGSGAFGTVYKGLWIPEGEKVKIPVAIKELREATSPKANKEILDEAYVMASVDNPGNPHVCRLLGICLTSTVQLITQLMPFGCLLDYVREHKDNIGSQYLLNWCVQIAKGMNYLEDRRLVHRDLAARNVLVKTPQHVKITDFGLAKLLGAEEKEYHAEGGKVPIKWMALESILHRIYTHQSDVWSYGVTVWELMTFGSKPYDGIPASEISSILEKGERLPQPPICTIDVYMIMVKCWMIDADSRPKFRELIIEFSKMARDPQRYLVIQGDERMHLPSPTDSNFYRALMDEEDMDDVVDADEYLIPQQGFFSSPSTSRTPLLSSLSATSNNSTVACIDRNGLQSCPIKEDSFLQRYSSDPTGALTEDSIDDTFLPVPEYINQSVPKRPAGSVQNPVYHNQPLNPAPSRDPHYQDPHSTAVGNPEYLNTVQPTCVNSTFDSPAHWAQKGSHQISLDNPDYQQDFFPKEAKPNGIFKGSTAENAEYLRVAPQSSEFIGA
In short: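 Phosphorylation of fluorescein-labeled poly-GluTyr read as TR-FRET using Tb-pY20 antibody after EDTA stop, with 340 nm excitation. Kinase reaction ran 10 min at room temperature following 10 min compound pre-incubation; substrate mix held 3 mM ATP and 30 µM peptide before addition. Buffer was HEPES pH 7.5.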

[4] = target: EGFR L858R/T790M (Homo sapiens (Human), UniProt P00533, L858R/T790M); test: TR-FRET assay for ERBB kinases; type: biochemical; settings: geometric mean if measured more than once
EGFR L858R/T790M, sequence (P00533 25-1210 T790M/L858R): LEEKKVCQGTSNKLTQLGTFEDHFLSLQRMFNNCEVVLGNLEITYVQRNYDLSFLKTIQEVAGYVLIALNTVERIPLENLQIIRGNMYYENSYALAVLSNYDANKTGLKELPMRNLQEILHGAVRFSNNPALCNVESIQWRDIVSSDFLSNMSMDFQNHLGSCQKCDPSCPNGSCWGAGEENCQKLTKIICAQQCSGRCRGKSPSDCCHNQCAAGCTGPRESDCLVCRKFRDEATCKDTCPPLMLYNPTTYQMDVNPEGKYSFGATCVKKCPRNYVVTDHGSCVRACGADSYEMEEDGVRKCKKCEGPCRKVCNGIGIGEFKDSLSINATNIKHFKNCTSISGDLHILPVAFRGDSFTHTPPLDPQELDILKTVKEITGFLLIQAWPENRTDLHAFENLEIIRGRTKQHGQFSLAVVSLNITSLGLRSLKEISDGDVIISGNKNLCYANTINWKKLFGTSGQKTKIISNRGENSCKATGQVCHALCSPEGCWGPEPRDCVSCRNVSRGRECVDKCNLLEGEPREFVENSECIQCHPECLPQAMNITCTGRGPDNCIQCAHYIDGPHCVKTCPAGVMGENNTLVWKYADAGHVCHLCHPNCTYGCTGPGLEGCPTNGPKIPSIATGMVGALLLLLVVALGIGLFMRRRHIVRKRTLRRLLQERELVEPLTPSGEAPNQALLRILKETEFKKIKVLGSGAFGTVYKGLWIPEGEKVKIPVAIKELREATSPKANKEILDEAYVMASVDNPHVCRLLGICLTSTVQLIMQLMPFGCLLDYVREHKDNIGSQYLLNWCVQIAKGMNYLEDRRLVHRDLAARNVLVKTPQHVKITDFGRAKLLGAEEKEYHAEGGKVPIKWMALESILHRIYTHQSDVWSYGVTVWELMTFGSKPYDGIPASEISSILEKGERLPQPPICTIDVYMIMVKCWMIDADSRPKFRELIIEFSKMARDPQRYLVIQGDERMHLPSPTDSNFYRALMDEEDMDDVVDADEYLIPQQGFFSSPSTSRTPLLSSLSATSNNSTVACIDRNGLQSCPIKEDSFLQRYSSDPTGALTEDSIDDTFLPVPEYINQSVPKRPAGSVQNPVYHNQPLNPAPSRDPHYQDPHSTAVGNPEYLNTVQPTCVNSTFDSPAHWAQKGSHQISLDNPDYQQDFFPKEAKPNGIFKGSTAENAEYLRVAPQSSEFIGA
In short: (§1)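 Detection: LanthaScreen Tb-pY20 antibody with EDTA, emission at 490 and 520 nm after 340 nm excitation. Reaction: 10 min at room temperature following 10 min compound–enzyme pre-incubation, started by a substrate mix of 3 mM ATP and 30 uM fluorescein-poly-GluTyr in HEPES pH 7.5.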

[5] = target: EGFR WT (Homo sapiens (Human), UniProt P00533); test: TR-FRET assay for ERBB kinases; type: biochemical; settings: geometric mean if measured more than once
In short: as §1

[6] = target: EGFR L858R/T790M/C797S (Homo sapiens (Human), UniProt P00533, C797S/L858R/T790M); test: TR-FRET assay for ERBB kinases; type: biochemical; settings: geometric mean if measured more than once
In short: as §1

[7] = target: EGFR L858R/T790M double mutant (H1975) (Homo sapiens (Human), UniProt P00533, L858R/T790M); test: EGFR protein degradation assay (Western blot); type: cell-based; settings: 72 hours, 300 nM to 10 nM
In short: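 EGFR protein levels were measured by immunoblotting. Lysate protein was quantified by BCA, and 10 μg per sample was separated by SDS/PAGE at 165V for 2 hours and transferred to PVDF. Membranes were blocked in TBS-T with 5% milk for 1 hour, probed overnight at 4° C with EGFR and tubulin antibodies, then secondary antibody for 1 hour, and detected by ECL on a Chemidoc.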

[8] = target: EGFR L858R/T790M/C797S triple mutant (H520*) (Homo sapiens (Human), UniProt P00533, C797S/L858R/T790M); test: EGFR protein degradation assay (Western blot); type: cell-based; settings: 72 hours, 300 nM to 10 nM
In short: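 EGFR loss in the triple-mutant line measured by immunoblot: clarified lysates normalised by BCA, run on 4-12% Bis-Tris gels, blotted to PVDF, probed with HRP anti-rabbit secondary. Before lysis, cells were dosed from 1, 0.3, 0.1, 0.03 and 0.01 mM DMSO stocks (not final concentrations) after overnight culture at 37° C.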

EGFR-wt (MDA-MB-231 or MCF7 or A549 or OVCAR8), sequence (P00533 25-1210): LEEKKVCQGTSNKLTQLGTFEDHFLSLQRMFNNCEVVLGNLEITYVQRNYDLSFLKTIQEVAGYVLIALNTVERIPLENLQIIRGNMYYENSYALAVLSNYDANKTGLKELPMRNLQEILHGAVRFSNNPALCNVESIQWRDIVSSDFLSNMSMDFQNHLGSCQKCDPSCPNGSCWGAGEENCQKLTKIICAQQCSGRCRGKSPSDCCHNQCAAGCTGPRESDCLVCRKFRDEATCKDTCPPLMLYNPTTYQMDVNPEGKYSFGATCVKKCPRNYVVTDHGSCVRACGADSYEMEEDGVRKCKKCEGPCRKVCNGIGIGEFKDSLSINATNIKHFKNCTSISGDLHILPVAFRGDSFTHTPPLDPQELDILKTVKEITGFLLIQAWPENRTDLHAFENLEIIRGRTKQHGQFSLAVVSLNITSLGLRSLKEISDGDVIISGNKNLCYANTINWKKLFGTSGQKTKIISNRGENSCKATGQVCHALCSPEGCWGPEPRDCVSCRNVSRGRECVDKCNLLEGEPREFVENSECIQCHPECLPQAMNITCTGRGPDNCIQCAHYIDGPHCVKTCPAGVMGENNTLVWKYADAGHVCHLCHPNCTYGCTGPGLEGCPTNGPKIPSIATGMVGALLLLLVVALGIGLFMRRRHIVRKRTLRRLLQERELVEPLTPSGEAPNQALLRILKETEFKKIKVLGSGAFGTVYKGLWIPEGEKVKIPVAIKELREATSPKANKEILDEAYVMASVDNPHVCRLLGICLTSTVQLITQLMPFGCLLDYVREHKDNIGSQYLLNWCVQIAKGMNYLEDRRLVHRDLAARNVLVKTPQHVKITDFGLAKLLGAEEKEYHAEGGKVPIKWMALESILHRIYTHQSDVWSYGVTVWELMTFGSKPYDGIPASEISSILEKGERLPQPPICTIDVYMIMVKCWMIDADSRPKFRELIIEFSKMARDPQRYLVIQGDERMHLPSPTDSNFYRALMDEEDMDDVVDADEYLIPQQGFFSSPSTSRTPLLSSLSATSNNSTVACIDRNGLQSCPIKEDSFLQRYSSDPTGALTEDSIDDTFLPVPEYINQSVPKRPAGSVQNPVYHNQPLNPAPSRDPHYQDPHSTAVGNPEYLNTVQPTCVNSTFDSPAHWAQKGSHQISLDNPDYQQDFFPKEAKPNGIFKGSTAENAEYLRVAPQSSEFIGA

Row | Compound | EGFR protein remaining, EGFR-wt [1] | EGFR protein remaining, EGFR Exon 20 ASV [2] | pIC50 [3] | pIC50 [4] | pIC50 [5] | pIC50 [6] | EGFR protein remaining, EGFR L858R/T790M double mutant [7] | EGFR protein remaining, EGFR L858R/T790M/C797S triple mutant [8]
1 | Cc1ncsc1-c1ccc(CNC(=O)[C@@H]2C[C@@H](O)CN2C(=O)[C@@H](NC(=O)COCCOCCOCCOc2ccc(-c3cc4c(NCc5ccccc5Cl)ncnc4[nH]3)cc2)C(C)(C)C)cc1 [Example 14, (2S,4R)-1-((S)-2-(tert-butyl)-14-(4-(4-((2-chlorobenzyl)amino)-7H-pyrrolo[2,3-d]pyrimidin-6-yl)phenoxy)-4-oxo-6,9,12-trioxa-3-azatetradecanoyl)-4-hydroxy-N-(4-(4-methylthiazol-5-yl)benzyl)pyrrolidine-2-carboxamide] | C (>80% EGFR protein remaining after 72 hours of incubation with the test compound at a concentration of 300 nM) | C (>80% EGFR protein remaining after 72 hours of incubation with the test compound at a concentration of 300 nM) | – | – | – | – | – | –
2 | O=C1CCC(N2C(=O)c3ccc(OCCOCCOCCN4CCN(Cc5ccc(-c6cc7c(NCc8ccccc8Cl)ncnc7[nH]6)cc5)CC4)cc3C2=O)C(=O)N1 (stereo not drawn) [Example 17, 5-(2-(2-(2-(4-(4-(4-((2-chlorobenzyl)amino)-7H-pyrrolo[2,3-d]pyrimidin-6-yl)benzyl)piperazin-1-yl)ethoxy)ethoxy)ethoxy)-2-(2,6-dioxopiperidin-3-yl)isoindoline-1,3-dione] | C (>80% EGFR protein remaining after 72 hours of incubation with the test compound at a concentration of 300 nM) | C (>80% EGFR protein remaining after 72 hours of incubation with the test compound at a concentration of 300 nM) | 6.72 | 5.14 | 6.66 | 5.31 | – | –
3 | Cc1ncsc1-c1ccc(CNC(=O)[C@H]2C[C@H](O)CN2C(=O)[C@@H](NC(=O)COCCOCCOc2ccc(-c3ccc4ncnc(Nc5ccc(OCc6cccc(F)c6)c(Cl)c5)c4c3)cc2)C(C)(C)C)cc1 [Example 98, (2R,4S)-1-((S)-2-(2-(2-(2-(4-(4-((3-Chloro-4-((3-fluorobenzyl)oxy)phenyl)amino)quinazolin-6-yl)phenoxy)ethoxy)ethoxy)acetamido)-3,3-dimethylbutanoyl)-4-hydroxy-N-(4-(4-methylthiazol-5-yl)benzyl)pyrrolidine-2-carboxamide] | C (>80% EGFR protein remaining after 72 hours of incubation with the test compound at a concentration of 300 nM) | – | – | – | – | – | – | –
4 | Cc1ncsc1-c1ccc(CNC(=O)[C@@H]2C[C@@H](O)CN2C(=O)[C@@H](NC(=O)COCCOCCOCCOc2ccc(-c3ccc4ncnc(Nc5ccc(OCc6cccc(F)c6)c(Cl)c5)c4c3)cc2)C(C)(C)C)cc1 [Example 99, (2S,4R)-1-((S)-2-(tert-Butyl)-14-(4-(4-((3-chloro-4-((3-fluorobenzyl)oxy)phenyl)amino)quinazolin-6-yl)phenoxy)-4-oxo-6,9,12-trioxa-3-azatetradecanoyl)-4-hydroxy-N-(4-(4-methylthiazol-5-yl)benzyl)pyrrolidine-2-carboxamide] | A (≤50% EGFR protein remaining after 72 hours of incubation with the test compound at a concentration between 300 nM and 10 nM) | – | – | – | – | – | – | –
5 | Cc1ncsc1-c1ccc(CNC(=O)[C@@H]2C[C@H](O)CN2C(=O)[C@@H](NC(=O)COCCOCCOCCOc2ccc(-c3ccc4ncnc(Nc5ccc(OCc6cccc(F)c6)c(Cl)c5)c4c3)cc2)C(C)(C)C)cc1 [Example 100, (2S,4S)-1-((S)-2-(tert-Butyl)-14-(4-(4-((3-chloro-4-((3-fluorobenzyl)oxy)phenyl)amino)quinazolin-6-yl)phenoxy)-4-oxo-6,9,12-trioxa-3-azatetradecanoyl)-4-hydroxy-N-(4-(4-methylthiazol-5-yl)benzyl)pyrrolidine-2-carboxamide] | C (>80% EGFR protein remaining after 72 hours of incubation with the test compound at a concentration of 300 nM) | – | – | – | – | – | – | –
6 | O=C1CCC(N2C(=O)c3ccc(OCCOCCN4CCN(Cc5ccc(-c6cc7c(NCc8ccccc8Cl)ncnc7[nH]6)cc5)CC4)cc3C2=O)C(=O)N1 (stereo not drawn) [Example 102, 5-(2-(2-(4-(4-(4-((2-chlorobenzyl)amino)-7H-pyrrolo[2,3-d]pyrimidin-6-yl)benzyl)piperazin-1-yl)ethoxy)ethoxy)-2-(2,6-dioxopiperidin-3-yl)isoindoline-1,3-dione] | C (>80% EGFR protein remaining after 72 hours of incubation with the test compound at a concentration of 300 nM) | C (>80% EGFR protein remaining after 72 hours of incubation with the test compound at a concentration of 300 nM) | – | – | – | – | – | –
7 | Cc1ncsc1-c1ccc(CNC(=O)[C@@H]2C[C@@H](O)CN2C(=O)[C@@H](NC(=O)COCCOCCOCCOCCOCc2ccc(-c3ccc4ncnc(Nc5ccc(OCc6cccc(F)c6)c(Cl)c5)c4c3)o2)C(C)(C)C)cc1 [Example 320, (2S,4R)-1-((S)-18-(tert-butyl)-1-(5-(4-((3-chloro-4-((3-fluorobenzyl)oxy)phenyl)amino)quinazolin-6-yl)furan-2-yl)-16-oxo-2,5,8,11,14-pentaoxa-17-azanonadecan-19-oyl)-4-hydroxy-N-(4-(4-methylthiazol-5-yl)benzyl)pyrrolidine-2-carboxamide] | A (≤50% EGFR protein remaining after 72 hours of incubation with the test compound at a concentration between 300 nM and 10 nM) | – | – | – | – | – | – | –
8 | COc1cc2c(Oc3ccc(N(C(=O)C4(C(N)=O)CC4)c4ccc(F)cc4)cc3F)ccnc2cc1OCCCOCCCOCCC(=O)N[C@H](C(=O)N1C[C@@H](O)C[C@H]1C(=O)NCc1ccc(-c2scnc2C)cc1)C(C)(C)C [Example 351, N-(3-Fluoro-4-((7-(3-(3-(3-(((S)-1-((2S,4S)-4-hydroxy-2-((4-(4-methylthiazol-5-yl)benzyl)carbamoyl)-pyrrolidin-1-yl)-3,3-dimethyl-1-oxobutan-2-yl)amino)-3-oxopropoxy)propoxy)propoxy)-6-methoxyquinolin-4-yl)oxy)phenyl)-N-(4-fluorophenyl)cyclopropane-1,1-dicarboxamide] | C (>80% EGFR protein remaining after 72 hours of incubation with the test compound at a concentration of 300 nM) | – | – | – | – | – | – | –
9 | O=C1CCC(N2C(=O)c3cccc(NCCOCCOCCOCCOCCOCC#Cc4cccc5c4C(=O)N([C@@H](C(=O)Nc4nccs4)c4cc(F)ccc4O)C5)c3C2=O)C(=O)N1 (stereo partly drawn) [compound 267] | – | – | 4.52 | 4.52 | 4.52 | 5.85 | C (>80% EGFR protein remaining after 72 hours of incubation with the test compound at a concentration of 300 nM) | C (>80% EGFR protein remaining after 72 hours of incubation with the test compound at a concentration of 300 nM)
10 | Cc1ncsc1-c1ccc([C@H](C)NC(=O)[C@H]2C[C@H](O)CN2C(=O)[C@@H](NC(=O)COCCOCCOCCOCCOCCOCC#Cc2cccc3c2C(=O)N([C@@H](C(=O)Nc2nccs2)c2cc(F)ccc2O)C3)C(C)(C)C)cc1 [compound 275] | C (>80% EGFR protein remaining after 72 hours of incubation with the test compound at a concentration of 300 nM) | – | 5.04 | 6.06 | 6.18 | 7.16 | C (>80% EGFR protein remaining after 72 hours of incubation with the test compound at a concentration of 300 nM) | B (≤80% and >50% EGFR protein remaining after 72 hours of incubation with the test compound at a concentration between 300 nM and 10 nM)
11 | Cc1ncsc1-c1ccc(CNC(=O)[C@@H]2C[C@@H](O)CN2C(=O)[C@@H](NC(=O)CO[C@H]2C[C@H](Oc3ccc(N4CCN(CCOCc5nc6cnc(Nc7ccnc(-c8cnn(S(=O)(=O)C9CC9)c8)n7)cc6n5C(C)C)CC4)cc3)C2)C(C)(C)C)cc1 [compound 304] | C (>80% EGFR protein remaining after 72 hours of incubation with the test compound at a concentration of 300 nM) | – | – | 7.04 | < 4.52 | 7.77 | – | A (≤50% EGFR protein remaining after 72 hours of incubation with the test compound at a concentration between 300 nM and 10 nM)
